In US6265611A, “Hydroxymandelic acid amides of phenolic amines” (Haarmann & Reimer GmbH, priority 1999, dated 2001):

Assay: Solubility in aqueous media (water/DMSO 95:5)
Assay type: physicochemical
Conditions: not given
Description: The aqueous medium used by way, of example, was a mixture of 95 parts by weight of water and 5 parts by weight of DMSO. The compounds to be tested were weighed into a glass vessel, admixed with a defined amount of solvent and treated with ultrasound at room temperature for 5 min.
In the case of `COc1cc(C(O)C(=O)NCCc2ccc(O)c(O)c2)ccc1O` (centres unmarked) [Example 1, N-(3,4-dihydroxyphenethyl)-2-hydroxy-2-(4-hydroxy-3 methoxyphenyl)acetamide], the “Solubility in a mixture of water (95 parts by weight) and DMSO (5 parts by weight)” value (from here on “Solubility in a mixture of water”) is reported as 5-10 % by weight. In the case of `O=C(NCCc1ccc(O)c(O)c1)C(O)c1ccc(O)c(O)c1` (centres unmarked) [Example 2, N-(3,4-dihydroxyphenethyl)-2-(3,4-dihydroxyphenyl)-2-hydroxyacetamide], the “Solubility in a mixture of water” value is reported as greater than 10 % by weight. In the case of `COc1cc(C(O)C(=O)NCc2ccc(O)c(O)c2)ccc1O` (centres unmarked) [Example 3, N-(3,4-dihydroxybenzyl)-2-hydroxy-2-(4-hydroxy-3methoxyphenyl)acetamide], the “Solubility in a mixture of water” value is reported as greater than 10 % by weight. With `COc1cc(C(O)C(=O)NCc2cc(O)c(O)c(O)c2)ccc1O` (centres unmarked) [Example 4, 2-Hydroxy-2-(4-hydroxy-3-methoxyphenyl)-N-(3,4,5-trihydroxybenzyl)acetamide] the “Solubility in a mixture of water” value was 0.5-1 % by weight. With `COc1cc(CNC(=O)C(O)c2ccc(O)c(O)c2)ccc1O` (centres unmarked) [Example 5, 2-(3,4-Dihydroxyphenyl)-2-hydroxy-N-(4-hydroxy-3 methoxybenzyl)acetamide] the “Solubility in a mixture of water” value was 0.05-0.1 % by weight. With `O=C(NCc1ccc(O)c(O)c1)C(O)c1ccc(O)c(O)c1` (centres unmarked) [Example 6, N-(3,4-dihydroxybenzyl)-2-(3,4-dihydroxyphenyl)-2-hydroxyacetamide] the “Solubility in a mixture of water” value was 0.1-0.5 % by weight. For `O=C(NCc1cc(O)c(O)c(O)c1)C(O)c1ccc(O)c(O)c1` (centres unmarked) [Example 7, 2-(3,4-Dihydroxyphenyl)-2-hydroxy-N-(3,4,5-trihydroxybenzyl)acetamide], the “Solubility in a mixture of water” value was 0.5-1 % by weight.

Assay: Activity as antioxidants: accelerated autoxidation of lipids by air (Rancimat)
Conditions: AOI = IP(with test solution)/IP(control sample); 0.05% test substance; soybean oil, 100° C., air 20 l/h
Description: The activity of the illustrative compounds 1 to 7 as antioxidants was compared with that of traditional antioxidants. The test system used was the accelerated autoxidation of lipids by air with or without antioxidant using the Rancimat apparatus (Rancimat is a registered trade mark of Metrohm AG, Herisau, Switzerland). The illustrative compounds, vitamin C, α-tocopherol, ferulic acid and butylated hydroxytoluene were dissolved in methanol or acetone, and 100 μl of each test solution were added to a 3 g prepared oil sample (soybean oil, purified over alumina type N). In a control sample, only solvent was added. A constant, dry stream of air (20 l/h) was blown through the oil sample, which contained the test solution and was heated to 100° C., and the volatile oxidation product (predominantly short-chain fatty acids such as formic or acetic acid) were collected in a trap containing water. The conductivity of this aqueous solution was continuously measured and recorded. […] The time to the increase is referred to as the induction period (IP). The following equation was used to calculate the antioxidative index (AOI): AOI=IP(with test solution) /IP(control sample)
For `Cc1cc(C(C)(C)C)c(O)c(C(C)(C)C)c1` [Butylated hydroxytoluene, reference compound], the “antioxidative index (AOI) with 0.05% of test substance” value was 4.77. With `COc1cc(C(O)C(=O)NCCc2ccc(O)c(O)c2)ccc1O` (centres unmarked) [Example 1, N-(3,4-dihydroxyphenethyl)-2-hydroxy-2-(4-hydroxy-3 methoxyphenyl)acetamide] the “antioxidative index (AOI) with 0.05% of test substance” value was 13.0. For `O=C(NCCc1ccc(O)c(O)c1)C(O)c1ccc(O)c(O)c1` (centres unmarked) [Example 2, N-(3,4-dihydroxyphenethyl)-2-(3,4-dihydroxyphenyl)-2-hydroxyacetamide], the “antioxidative index (AOI) with 0.05% of test substance” value was 16.9. In the case of `COc1cc(C(O)C(=O)NCc2ccc(O)c(O)c2)ccc1O` (centres unmarked) [Example 3, N-(3,4-dihydroxybenzyl)-2-hydroxy-2-(4-hydroxy-3methoxyphenyl)acetamide], the “antioxidative index (AOI) with 0.05% of test substance” value is reported as 9.8. For `COc1cc(C(O)C(=O)NCc2cc(O)c(O)c(O)c2)ccc1O` (centres unmarked) [Example 4, 2-Hydroxy-2-(4-hydroxy-3-methoxyphenyl)-N-(3,4,5-trihydroxybenzyl)acetamide], the “antioxidative index (AOI) with 0.05% of test substance” value was 11.0. For `COc1cc(CNC(=O)C(O)c2ccc(O)c(O)c2)ccc1O` (centres unmarked) [Example 5, 2-(3,4-Dihydroxyphenyl)-2-hydroxy-N-(4-hydroxy-3 methoxybenzyl)acetamide], the “antioxidative index (AOI) with 0.05% of test substance” value was 12.6. For `O=C(NCc1ccc(O)c(O)c1)C(O)c1ccc(O)c(O)c1` (centres unmarked) [Example 6, N-(3,4-dihydroxybenzyl)-2-(3,4-dihydroxyphenyl)-2-hydroxyacetamide], the “antioxidative index (AOI) with 0.05% of test substance” value was 17.5. With `O=C(NCc1cc(O)c(O)c(O)c1)C(O)c1ccc(O)c(O)c1` (centres unmarked) [Example 7, 2-(3,4-Dihydroxyphenyl)-2-hydroxy-N-(3,4,5-trihydroxybenzyl)acetamide] the “antioxidative index (AOI) with 0.05% of test substance” value was 16.4. For `COc1cc(/C=C/C(=O)O)ccc1O` [Ferulic acid, reference compound], the “antioxidative index (AOI) with 0.05% of test substance” value was 1.79. With `O=C1O[C@H]([C@@H](O)CO)C(O)=C1O` [Vitamin C, ascorbic acid, reference compound] the “antioxidative index (AOI) with 0.05% of test substance” value was 1.17. In the case of `Cc1c(C)c2c(c(C)c1O)CCC(C)(CCCC(C)CCCC(C)CCCC(C)C)O2` (stereo not drawn) [α-Tocopherol, reference compound], the “antioxidative index (AOI) with 0.05% of test substance” value is reported as 5.05.

Assay: DPPH test, activity as free-radical scavenger
Assay type: biochemical
Conditions: EC = c(test compound)/c(DPPH); DPPH 100 μmol/l in methanol; absorption at 515 nm
Description: The activity of the compounds according to Examples 1 to 7 as free-radical scavengers was compared with the conventional free-radical scavenger. For this purpose, the DPPH (1,1-diphenyl-2-picryl-hydrazyl) test for the removal of […] was used.
DPPH was dissolved in methanol to a concentration of 100 μmol/l. A series of dilutions of the illustrative compound, vitamin C, α tocopherol, butylated hydroxytoluene and ferulic acid in methanol were prepared. Methanol was used as the control. 2500 μl of the DPPH solution were mixed with 500 μl of each test solution and the decrease in absorption at 515 nm was read until the decrease was less than 2% per hour. The activity of the test substances as free-radical scavengers was calculated using the following equation:
Activity as free-radical scavenger (%)=100-(absorption of the test
compounds)/ (absorption of the control)×100.
With `Cc1cc(C(C)(C)C)c(O)c(C(C)(C)C)c1` [Butylated hydroxytoluene, reference compound] the “EC50 (effective relative concentration at which 50% of the free radical DPPH had been removed)” value was 0.240 mol/mol. For `COc1cc(C(O)C(=O)NCCc2ccc(O)c(O)c2)ccc1O` (centres unmarked) [Example 1, N-(3,4-dihydroxyphenethyl)-2-hydroxy-2-(4-hydroxy-3 methoxyphenyl)acetamide], the “EC50 (effective relative concentration at which 50% of the free radical DPPH had been removed)” value was 0.131 mol/mol. For `O=C(NCCc1ccc(O)c(O)c1)C(O)c1ccc(O)c(O)c1` (centres unmarked) [Example 2, N-(3,4-dihydroxyphenethyl)-2-(3,4-dihydroxyphenyl)-2-hydroxyacetamide], the “EC50 (effective relative concentration at which 50% of the free radical DPPH had been removed)” value was 0.104 mol/mol. In the case of `COc1cc(C(O)C(=O)NCc2ccc(O)c(O)c2)ccc1O` (centres unmarked) [Example 3, N-(3,4-dihydroxybenzyl)-2-hydroxy-2-(4-hydroxy-3methoxyphenyl)acetamide], the “EC50 (effective relative concentration at which 50% of the free radical DPPH had been removed)” value is reported as 0.195 mol/mol. With `COc1cc(C(O)C(=O)NCc2cc(O)c(O)c(O)c2)ccc1O` (centres unmarked) [Example 4, 2-Hydroxy-2-(4-hydroxy-3-methoxyphenyl)-N-(3,4,5-trihydroxybenzyl)acetamide] the “EC50 (effective relative concentration at which 50% of the free radical DPPH had been removed)” value was 0.198 mol/mol. In the case of `COc1cc(CNC(=O)C(O)c2ccc(O)c(O)c2)ccc1O` (centres unmarked) [Example 5, 2-(3,4-Dihydroxyphenyl)-2-hydroxy-N-(4-hydroxy-3 methoxybenzyl)acetamide], the “EC50 (effective relative concentration at which 50% of the free radical DPPH had been removed)” value is reported as 0.199 mol/mol. For `O=C(NCc1ccc(O)c(O)c1)C(O)c1ccc(O)c(O)c1` (centres unmarked) [Example 6, N-(3,4-dihydroxybenzyl)-2-(3,4-dihydroxyphenyl)-2-hydroxyacetamide], the “EC50 (effective relative concentration at which 50% of the free radical DPPH had been removed)” value was 0.069 mol/mol. With `O=C(NCc1cc(O)c(O)c(O)c1)C(O)c1ccc(O)c(O)c1` (centres unmarked) [Example 7, 2-(3,4-Dihydroxyphenyl)-2-hydroxy-N-(3,4,5-trihydroxybenzyl)acetamide] the “EC50 (effective relative concentration at which 50% of the free radical DPPH had been removed)” value was 0.085 mol/mol. In the case of `COc1cc(/C=C/C(=O)O)ccc1O` [Ferulic acid, reference compound], the “EC50 (effective relative concentration at which 50% of the free radical DPPH had been removed)” value is reported as 0.350 mol/mol. In the case of `O=C1O[C@H]([C@@H](O)CO)C(O)=C1O` [Vitamin C, ascorbic acid, reference compound], the “EC50 (effective relative concentration at which 50% of the free radical DPPH had been removed)” value is reported as 0.270 mol/mol. With `Cc1c(C)c2c(c(C)c1O)CCC(C)(CCCC(C)CCCC(C)CCCC(C)C)O2` (stereo not drawn) [α-Tocopherol, reference compound] the “EC50 (effective relative concentration at which 50% of the free radical DPPH had been removed)” value was 0.250 mol/mol.
